Values joined by “and” are separate entries in the source; they are usually repeats but may differ in a detail not shown here. Equal entries are not always repeated.
Assays:
PTP1B = target: T1, PTP1B (Homo sapiens, UniProt P18031); experiment: Mode of inhibition and Ki, Lineweaver-Burk kinetic analysis with DiFMUP; assay type: biochemical
T1 construct: PTP1B, residues 1-321; made in house; host or cells: E. coli BL21(DE3)
T1 sequence (P18031 1-321): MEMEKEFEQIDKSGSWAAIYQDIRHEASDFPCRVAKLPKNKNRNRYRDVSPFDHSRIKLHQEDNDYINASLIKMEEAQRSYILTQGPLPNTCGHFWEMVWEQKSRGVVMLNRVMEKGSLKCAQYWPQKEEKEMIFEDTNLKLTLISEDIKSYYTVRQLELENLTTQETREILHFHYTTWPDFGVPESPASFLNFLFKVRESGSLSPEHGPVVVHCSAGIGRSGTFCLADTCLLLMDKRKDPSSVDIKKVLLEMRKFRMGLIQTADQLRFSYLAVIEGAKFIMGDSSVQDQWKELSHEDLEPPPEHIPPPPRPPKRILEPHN
Description: To determine the mode of inhibition, the reactions were initiated by the addition of enzyme (final concentration for PTP1B and PTPN2 was 0.05 nM) to the reaction mixtures (0.2 ml) containing various concentrations of DiFMUP with different concentrations of the inhibitor. […] The fluorescence signal was measured using a CLARIOstar Plus Microplate Spectrophotometer (BMG Labtech) using excitation and emission wavelength of 340 nm and 450 nm, respectively. Data were fitted using Prism GraphPad 9.2.0. For selectivity studies, the inhibition assay for other PTPs were performed under the same conditions as used for PTP1B and PTPN2 except with different DiFMUP concentration corresponding to the Km of the PTP studied.

OT-I CD8+ T cells = experiment: T cell proliferation (CTV dilution); assay type: cell-based, mouse; parameters: CTV, single replicates / CTV, mean of differences (D - C): unit not given here; conditions: for CTV, single replicates: N4 0.5 nM, 1 μM, 3 days, Fig. 2C raw data
Description: For analyzing cellular proliferation in vitro, single-cell suspensions from lymph nodes of wild type (OT-I;Ptpn2^fl/fl) or PTPN2-deficient (OT-I;Lck-Cre;Ptpn2^fl/fl) mice were stained with 2 μM CellTrace^TM Violet (CTV; Molecular Probes, Thermo Fisher Scientific) in PBS supplemented with 0.1% (v/v) FBS for 20 min at 37 °C. […] On day 3, OT-I cells were harvested and CTV dilution was monitored by flow cytometry. For cell number quantification, known numbers of Flow-Count Fluorospheres (Beckman Coulter) were added to samples before analysis.

[1] = tested on: SFK Y418 phosphorylation in naive CD8+ T cells; experiment: TCR signaling, p-SFK (Y418) by flow cytometry; assay type: cell-based, mouse; conditions: for p-SFK MFI, single replicates: 10 μM 4 h, Fig. 2D raw data, listed as CMP-182
Description: For assessing TCR signaling, single-cell suspensions of naïve (CD44^loCD62L^hi) lymph node CD8^+ T cells (isolated using the EasySep™ Mouse Naïve CD8^+ T cell Isolation Kit, Stemcell Technologies) were washed with ice-cold PBS supplemented with 2% (v/v) FBS and stained with fixable viable dye and fluorophore-conjugated antibodies to CD8 and CD4 on ice for 15 min. […] Cells were then incubated with 5 μg/ml hamster α-mouse CD3ε for 20 min on ice, washed with complete T cell medium supplemented with 1% (v/v) FBS, and then TCR cross-linked with goat α-hamster IgG (20 μg /ml, Sigma) for the indicated times at 37 °C. The reaction was terminated by the addition of paraformaldehyde (BD Cytofix™ Fixation Buffer) to a final concentration of 2% (v/v) on ice for 20 min. Fixed cells were washed in complete T cell medium/1% (v/v) FBS and permeabilised with 90% (v/v) methanol on ice for 30 min. Permeabilised cells were stained with fluorophore-conjugated antibodies to Y418 phosphorylated and activated SFKs (p-SFK; 1:100, Invitrogen) for 1 h at room temperature; p-SFK mean fluorescence intensities in CD8^+ T cells were determined by flow cytometry.

[2] = Serum anti-nuclear antibodies (ANA) ELISA; assay type: in vivo, mouse
Text: CD3ε (BD Biosciences Cat# 553058) and CD28 (BD Biosciences Cat# 557393) antibodies for T cell stimulation and NK1.1 (BD Biosciences Cat# 564143) antibody for NK cell stimulation were purchased from BD Biosciences. Ly49H (clone 3D10, BioLegend Cat# 144702) antibody for NK stimulation was from BioLegend. For analyzing T cell signaling, p-(Y418) SFK (Thermo Fisher Scientific Cat# 14-9034-82) was from Invitrogen and p-(Y694) STAT-5 (D47E7) XP® (Cell Signaling Technology Cat# 4322) was from Cell Signaling. Recombinant human IL-2, recombinant murine IL-7 and recombinant human IL-15 were purchased from the PeproTech, recombinant mouse IL-12 and recombinant human IL-18 were from Australia Biosearch and […] (N4) from Mimotopes. InVivoMAb anti-mouse PD-1 (Bio X Cell Cat# BE0146) and InVivoMAb rat IgG2a isotype control (Bio X Cell Cat# BE0251) were purchased from Bio X Cell. DNase I was from Sigma-Aldrich. Rabbit monoclonal PTP1B (Abcam Cat# ab244207) antibody for flow cytometry was from Abcam and mouse monoclonal PTPN2 6F3 antibody for immunoblotting and flow cytometry was from MédiMabs (Cat# MM-019-P). Mouse anti-actin (Thermo Fisher Scientific Cat# MA5-11866) from Invitrogen and mouse α-tubulin (Sigma-Aldrich Cat# T5168) was from Merck. The mouse anti-nuclear antibodies Ig’s (total IgA+G + M) ELISA Kit was from Alpha Diagnostic Int. and the Transaminase II Kit from Wako Pure Chemicals. FBS was purchased from Thermo Scientific, RPMI 1640, DMEM, MEM, HEPES, non-essential amino acids, penicillin/streptomycin, and sodium-pyruvate were from Invitrogen, collagenase type IV was purchased from Worthington Biochemical and ABBV-CLS-484 was from MedChemExpress (Cat# HY-145923).

For CC(C)(O)CCOc1ccc2cc(O)c(N3CC(=O)NS3(=O)=O)c(F)c2c1 [Compound 182, 5-(1-Fluoro-3-hydroxy-7-(3-hydroxy-3-methylbutoxy)naphthalen-2-yl)−1,2,5-thiadiazolidin-3-one 1,1-dioxide], the mode of inhibition (PTP1B) was “classic competitive inhibitor”, the “OT-I CD8+ T cell proliferation/expansion (CTV dilution)” value (OT-I CD8+ T cells) was “marked increases” and the “CTV, mean of differences (D - C)” value (OT-I CD8+ T cells; 2KI vs. 2K, day 3, 4 pairs, Fig. 2C) was 23.93. For the same molecule, the “CTV, single replicates” value (OT-I CD8+ T cells; Lck-Cre;Ptpn2fl/fl (2K) OT-I cells, listed as 2KI) was 82.8 and 89.7 and 89.6 and 74.7, the “CTV, mean of differences (B - A)” value (OT-I CD8+ T cells; WTI vs. WT, day 3, 4 pairs, Fig. 2C) was 27.74 and the “CTV, single replicates” value (OT-I CD8+ T cells; wild type OT-I cells, listed as WTI) was 38.7 and 58 and 84.3 and 62.7. For the same molecule, the “p-SFK MFI, single replicates” value ([1]; TCR cross-linking time 0) was 92.6 and 93.9 and 88, the “p-SFK MFI, single replicates” value ([1]; TCR cross-linking time 2) was 252 (2×) and 216 and the “p-SFK MFI, single replicates” value ([1]; TCR cross-linking time 5) was 211 and 192 and 269. The “p-SFK MFI, single replicates” value ([1]; TCR cross-linking time 10) was 178 and 172 and 193, the “p-SFK, column mean” value ([1]; 10 uM, mean over all times, two-way ANOVA, Fig. 2D) was 184.1 and the “p-SFK, group mean (Mean 2)” value ([1]; 10 uM, time 0, N 3, Fig. 2D) was 91.5. For the same molecule, the “p-SFK, group mean (Mean 2)” value ([1]; 10 uM, time 2, N 3, Fig. 2D) was 240, the “p-SFK, group mean (Mean 2)” value ([1]; 10 uM, time 5, N 3, Fig. 2D) was 224 and the “p-SFK, group mean (Mean 2)” value ([1]; 10 uM, time 10, N 3, Fig. 2D) was 181. For the same molecule, the “TCR-induced SFK Y418 phosphorylation (p-SFK)” value ([1]; α-CD3/IgG crosslinking) was “enhanced”, the “serum anti-nuclear antibodies (ANA)” value ([2]; 10 mg/kg i.v.) was “unaltered” and the “Serum ANA” value ([2]; Figure 10C, individual mice, listed as CMP-182) was 77.3077 and 275 and 43.4615 and 42.6923 and 47.3077 and 142.692 and 64.2308. The “ANA Serum, median” value ([2]; Figure 10C, median, n=8) was 70.77, n=8.
